From ChEMBL document CHEMBL3817816, “Improvement of the pharmacological properties of amidated kyotorphin by means of iodination” (Medchemcomm, 2016)
Values belong to the compound of their own block, whether it stands above or below them.

Experiments:
Liver [1] = experiment: Stability of compound in Sprague-Dawley rat liver homogenate assessed as remaining parent compound […] at 10 mins by RP-HPLC analysis; type: ADME; settings: iv
[2] = Stability of compound in saline at 11 kBq/uL up to 1 week at 4 degC by HPLC analysis; type: physicochemical; settings: buffer, 168 h
Spleen [3] = experiment: Drug uptake in Sprague-Dawley rat spleen at 11 MBq, ip after 10mins by gamma counting assay; type: ADME, organism-based; settings: in vivo
Muscle tissue [4] = experiment: Drug uptake in Sprague-Dawley rat muscle at 11 MBq, ip after 5 mins by gamma counting assay; type: ADME, organism-based; settings: in vivo
Kidney [5] = experiment: Drug uptake in Sprague-Dawley rat kidney at 11 MBq, ip after 10mins by gamma counting assay; type: ADME, organism-based; settings: in vivo
Heart [6] = experiment: Drug uptake in Sprague-Dawley rat heart at 11 MBq, ip after 5 mins by gamma counting assay; type: ADME, organism-based; settings: in vivo
Intestine [7] = experiment: Drug uptake in Sprague-Dawley rat intestine at 11 MBq, ip after 5 mins by gamma counting assay; type: ADME, organism-based; settings: in vivo
Intestine [8] = experiment: Drug uptake in Sprague-Dawley rat intestine at 11 MBq, ip after 10mins by gamma counting assay; type: ADME, organism-based; settings: in vivo
Brain [9] = experiment: Drug uptake in Sprague-Dawley rat brain at 11 MBq, ip after 10mins by gamma counting assay; type: ADME, organism-based; settings: in vivo
Femur [10] = experiment: Drug uptake in Sprague-Dawley rat femur at 11 MBq, ip after 5 mins by gamma counting assay; type: ADME, organism-based; settings: in vivo
Thyroid gland [11] = experiment: Drug uptake in Sprague-Dawley rat thyroid at 11 MBq, ip after 10mins by gamma counting assay; type: ADME, organism-based; settings: in vivo
Kidney [12] = experiment: Drug uptake in Sprague-Dawley rat kidney at 11 MBq, ip after 5 mins by gamma counting assay; type: ADME, organism-based; settings: in vivo
Stomach [13] = experiment: Drug uptake in Sprague-Dawley rat stomach at 11 MBq, ip after 5 mins by gamma counting assay; type: ADME, organism-based; settings: in vivo
Femur [14] = experiment: Drug uptake in Sprague-Dawley rat femur at 11 MBq, ip after 10mins by gamma counting assay; type: ADME, organism-based; settings: in vivo
Liver [15] = experiment: Drug uptake in Sprague-Dawley rat liver at 11 MBq, ip after 10mins by gamma counting assay; type: ADME, organism-based; settings: in vivo
[16] = Permeability across apical to basolateral side of mouse bEND.3 cells at 37 kBq/200 uL after 10 hrs by transwell assay relative to control; type: ADME
Lung [17] = experiment: Drug uptake in Sprague-Dawley rat lung at 11 MBq, ip after 5 mins by gamma counting assay; type: ADME, organism-based; settings: in vivo
Brain [18] = experiment: Drug uptake in Sprague-Dawley rat brain at 11 MBq, ip after 5 mins by gamma counting assay; type: ADME, organism-based; settings: in vivo
Spleen [19] = experiment: Drug uptake in Sprague-Dawley rat spleen at 11 MBq, ip after 5 mins by gamma counting assay; type: ADME, organism-based; settings: in vivo
Rattus norvegicus [20] = experiment: Analgesic activity in Wistar Han rat assessed as time required to show maximal effect at 44.42 mg/kg, ip administered as single dose by hot plate test; type: functional
Muscle tissue [21] = experiment: Drug uptake in Sprague-Dawley rat muscle at 11 MBq, ip after 10mins by gamma counting assay; type: ADME, organism-based; settings: in vivo
Lung [22] = experiment: Drug uptake in Sprague-Dawley rat lung at 11 MBq, ip after 10mins by gamma counting assay; type: ADME, organism-based; settings: in vivo
Blood [23] = experiment: Drug uptake in Sprague-Dawley rat blood at 11 MBq, ip after 10mins by gamma counting assay; type: ADME, organism-based; settings: in vivo
[24] = Stability of compound in Sprague-Dawley rat serum assessed as remaining parent compound at 5 mins by RP-HPLC analysis; type: ADME; settings: read-out: Stability
Thyroid gland [25] = experiment: Drug uptake in Sprague-Dawley rat thyroid at 11 MBq, ip after 5 mins by gamma counting assay; type: ADME, organism-based; settings: in vivo
Blood [26] = experiment: Drug uptake in Sprague-Dawley rat blood at 11 MBq, ip after 5 mins by gamma counting assay; type: ADME, organism-based; settings: in vivo
Stomach [27] = experiment: Drug uptake in Sprague-Dawley rat stomach at 11 MBq, ip after 10mins by gamma counting assay; type: ADME, organism-based; settings: in vivo
Kidney [28] = experiment: Stability of compound in Sprague-Dawley rat kidney homogenate assessed as remaining parent compound at 10 mins by RP-HPLC analysis; type: ADME, tissue-based; settings: tissue homogenate
Liver [29] = experiment: Drug uptake in Sprague-Dawley rat liver at 11 MBq, ip after 5 mins by gamma counting assay; type: ADME, organism-based; settings: in vivo
[30] = Octanol-PBS partition coefficient, log P of the compound at pH 7.4 by shake flask method; type: physicochemical
Heart [31] = experiment: Drug uptake in Sprague-Dawley rat heart at 11 MBq, ip after 10mins by gamma counting assay; type: ADME, organism-based; settings: in vivo
Rattus norvegicus [32] = experiment: Analgesic activity in Wistar Han rat assessed as time required to show maximal effect at 5 mg/kg, ip by hot plate test; type: functional
Rattus norvegicus [33] = experiment: Analgesic activity in Wistar Han rat assessed as time required to show maximal effect at 56.47 mg/kg, ip administered as single dose by hot plate test; type: functional

Stability (Liver [1]): Unstable
Stability [2]: Stable
Drug uptake (Spleen [3]): 0.33 % ID/g
Drug uptake (Muscle tissue [4]): 0.28 % ID/g
Drug uptake (Kidney [5]): 0.57 % ID/g
Drug uptake (Heart [6]): 0.26 % ID/g
Drug uptake (Intestine [7]): 1.6 % ID/g
Drug uptake (Intestine [8]): 1.06 % ID/g
Drug uptake (Brain [9]): 0.07 % ID/g
Drug uptake (Femur [10]): 0.22 % ID/g
Drug uptake (Thyroid gland [11]): 0.7 % ID/g
Drug uptake (Kidney [12]): 0.5 % ID/g
Drug uptake (Stomach [13]): 0.48 % ID/g
Drug uptake (Femur [14]): 0.27 % ID/g
Drug uptake (Liver [15]): 0.88 % ID/g
fold change (FC) [16]: 0.49
Drug uptake (Lung [17]): 0.5 % ID/g
Drug uptake (Brain [18]): 0.03 % ID/g
Drug uptake (Spleen [19]): 1.1 % ID/g
Drug uptake (Muscle tissue [21]): 0.26 % ID/g
Drug uptake (Lung [22]): 0.35 % ID/g
Drug uptake (Blood [23]): 0.68 % ID/g
remaining at 5 min [24]: 72.5%
Drug uptake (Thyroid gland [25]): 2.7 % ID/g
Drug uptake (Blood [26]): 0.5 % ID/g
Drug uptake (Stomach [27]): 0.98 % ID/g
Stability (Kidney [28]): Unstable
Drug uptake (Liver [29]): 0.9 % ID/g
logD [30]: -1.8
Drug uptake (Heart [31]): 0.32 % ID/g
Structure (SMILES): N=C(N)NCCC[C@H](NC(=O)[C@@H](N)Cc1ccc(O)c([125I])c1)C(N)=O
Time (Rattus norvegicus [20]): 30 min

Structure (SMILES): N=C(N)NCCC[C@H](NC(=O)[C@@H](N)Cc1ccc(O)cc1)C(N)=O
Time (Rattus norvegicus [32]): 15 min

Structure (SMILES): N=C(N)NCCC[C@H](NC(=O)[C@@H](N)Cc1cc([125I])c(O)c([125I])c1)C(N)=O
Time (Rattus norvegicus [33]): 30 min
